“And” between values parts separate entries of the source, which are not always exact repeats. Identical values can stand only once.
Test: Biodistribution of [^18F]JHU122047 with UAMC-01110 blocker
Assay type: in vivo, mouse
[1] = + Blocker UAMC-01110, 1 hr post injection, mean
[2] = + Vehicle, 1 hr post injection, mean
[3] = individual mouse, NOD/SCID, 120 min
[4] = individual mouse, NUDE, 120 min
[5] = mean (one sample; gamma counter error), NOD/SCID, 120 min

N#C[C@@H]1CCCN1C(=O)CNC(=O)c1ccnc2ccc(OCCF)cc12 [[^18F]JHU122047]
% ID/g Mean Bladder [1]: 2.10 % ID/g | % ID/g Mean Bladder [2]: 1.13 % ID/g | % ID/g Mean Blood (Blood, + Blocker UAMC-01110, 1 hr post injection, mean): 0.12 % ID/g | % ID/g Mean Blood (Blood, + Vehicle, 1 hr post injection, mean): 0.36 % ID/g | % ID/g Blood (Blood, + Vehicle, 1 hr post injection, single mouse): 0.38 % ID/g and 0.34 % ID/g | % ID/g Mean Brain [1]: 0.19 % ID/g | % ID/g Mean Brain [2]: 0.14 % ID/g | % ID/g Mean Fat [1]: 0.08 % ID/g | % ID/g Mean Fat [2]: 0.11 % ID/g | % ID/g Mean Heart (Heart, + Blocker UAMC-01110, 1 hr post injection, mean): 0.38 % ID/g | % ID/g Mean Heart (Heart, + Vehicle, 1 hr post injection, mean): 0.35 % ID/g | % ID/g Heart (Heart, + Vehicle, 1 hr post injection, single mouse): 0.35 % ID/g | % ID/g Mean Kidney [1]: 0.60 % ID/g | % ID/g Mean Kidney [2]: 1.25 % ID/g | % ID/g Mean Large intestine [1]: 2.19 % ID/g | % ID/g Mean Large intestine [2]: 0.99 % ID/g | % ID/g Mean Liver (Liver, + Blocker UAMC-01110, 1 hr post injection, mean): 0.66 % ID/g | % ID/g Mean Liver (Liver, + Vehicle, 1 hr post injection, mean): 0.68 % ID/g | % ID/g Liver (Liver, + Vehicle, 1 hr post injection, single mouse): 0.67 % ID/g | % ID/g Mean Lung (Lung, + Blocker UAMC-01110, 1 hr post injection, mean): 0.33 % ID/g | % ID/g Mean Lung (Lung, + Vehicle, 1 hr post injection, mean): 0.36 % ID/g | % ID/g Lung (Lung, + Vehicle, 1 hr post injection, single mouse): 0.34 % ID/g and 0.37 % ID/g | % ID/g Mean Muscle [1]: 0.27 % ID/g | % ID/g Mean Muscle [2]: 0.34 % ID/g | % ID/g Mean Pancreas [1]: 0.23 % ID/g | % ID/g Mean Pancreas [2]: 0.33 % ID/g | % ID/g Mean Salivary gland [1]: 0.28 % ID/g | % ID/g Mean Salivary gland [2]: 0.58 % ID/g | % ID/g Mean Small intestine [1]: 8.53 % ID/g | % ID/g Mean Small intestine [2]: 2.48 % ID/g | % ID/g Mean Spleen [1]: 0.28 % ID/g | % ID/g Mean Spleen [2]: 0.26 % ID/g | % ID/g Mean Stomach [1]: 0.50 % ID/g | % ID/g Mean Stomach [2]: 0.32 % ID/g | % ID/g Mean Tumor [1]: 0.45 % ID/g | % ID/g Mean Tumor [2]: 1.96 % ID/g | Bladder % ID/g (individual mouse): 12.70 % ID/g and 11.31 % ID/g | Brain % ID/g (individual mouse): 0.02 % ID/g and 0.08 % ID/g | Fat % ID/g (individual mouse): 0.07 % ID/g and 0.10 % ID/g | Femur % ID/g (individual mouse): 0.87 % ID/g and 0.43 % ID/g | Kidney % ID/g (individual mouse): 1.61 % ID/g and 1.54 % ID/g | Large intestine % ID/g (individual mouse): 0.18 % ID/g and 0.19 % ID/g | Liver % ID/g (individual mouse): 1.74 % ID/g and 1.65 % ID/g | Muscle % ID/g (individual mouse): 0.07 % ID/g and 0.12 % ID/g | Pancreas % ID/g (individual mouse): 0.07 % ID/g and 0.19 % ID/g | Salivary gland % ID/g (individual mouse): 0.12 % ID/g and 0.14 % ID/g | Small intestine % ID/g (individual mouse): 0.48 % ID/g and 0.45 % ID/g | Spleen % ID/g (individual mouse): 0.10 % ID/g and 0.15 % ID/g | Stomach % ID/g (individual mouse): 0.18 % ID/g and 0.17 % ID/g | Tumor % ID/g (individual mouse): 0.21 % ID/g and 0.23 % ID/g | Bladder % ID/g [3]: 3.86 % ID/g | Blood % ID/g [3]: 0.40 % ID/g and 0.47 % ID/g | Brain % ID/g [3]: 0.04 % ID/g | Fat % ID/g [3]: 0.09 % ID/g and 0.18 % ID/g | Femur % ID/g [3]: 1.59 % ID/g | Heart % ID/g [3]: 0.20 % ID/g and 0.29 % ID/g | Kidney % ID/g [3]: 1.51 % ID/g and 1.58 % ID/g | Large intestine % ID/g [3]: 0.30 % ID/g and 0.45 % ID/g | Liver % ID/g [3]: 1.11 % ID/g and 0.88 % ID/g | Lung % ID/g [3]: 0.36 % ID/g and 0.57 % ID/g | Muscle % ID/g [3]: 0.25 % ID/g and 0.35 % ID/g | Pancreas % ID/g [3]: 0.38 % ID/g and 0.77 % ID/g | Salivary gland % ID/g [3]: 0.74 % ID/g and 0.62 % ID/g | Small intestine % ID/g [3]: 0.38 % ID/g and 0.95 % ID/g | Spleen % ID/g [3]: 0.26 % ID/g and 0.36 % ID/g | Stomach % ID/g [3]: 0.22 % ID/g and 0.35 % ID/g | Tumor % ID/g [3]: 3.13 % ID/g | Bladder % ID/g [4]: 1.31 % ID/g and 1.80 % ID/g | Blood % ID/g [4]: 0.66 % ID/g and 0.56 % ID/g | Brain % ID/g [4]: 0.05 % ID/g and 0.06 % ID/g | Fat % ID/g [4]: 0.13 % ID/g and 0.10 % ID/g | Femur % ID/g [4]: 2.27 % ID/g and 2.55 % ID/g | Heart % ID/g [4]: 0.34 % ID/g and 0.28 % ID/g | Kidney % ID/g [4]: 1.50 % ID/g and 1.43 % ID/g | Large intestine % ID/g [4]: 0.34 % ID/g and 0.41 % ID/g | Liver % ID/g [4]: 0.45 % ID/g and 0.42 % ID/g | Lung % ID/g [4]: 0.49 % ID/g and 0.56 % ID/g | Muscle % ID/g [4]: 0.49 % ID/g and 0.45 % ID/g | Pancreas % ID/g [4]: 0.53 % ID/g and 0.34 % ID/g | Salivary gland % ID/g [4]: 1.02 % ID/g and 0.78 % ID/g | Small intestine % ID/g [4]: 0.35 % ID/g and 0.31 % ID/g | Spleen % ID/g [4]: 0.22 % ID/g | Stomach % ID/g [4]: 0.27 % ID/g and 0.25 % ID/g | Tumor % ID/g [4]: 2.65 % ID/g and 3.51 % ID/g | Bladder % ID/g (mean): 12.01 % ID/g | Brain % ID/g (mean): 0.02 % ID/g | Fat % ID/g (mean): 0.08 % ID/g | Femur % ID/g (mean): 0.40 % ID/g | Kidney % ID/g (mean): 1.57 % ID/g | Large intestine % ID/g (mean): 0.18 % ID/g | Liver % ID/g (mean): 1.70 % ID/g | Lung % ID/g (mean): 0.38 % ID/g | Muscle % ID/g (mean): 0.09 % ID/g | Pancreas % ID/g (mean): 0.10 % ID/g | Salivary gland % ID/g (mean): 0.13 % ID/g | Small intestine % ID/g (mean): 0.47 % ID/g | Spleen % ID/g (mean): 0.13 % ID/g | Stomach % ID/g (mean): 0.17 % ID/g | Tumor % ID/g (mean): 0.22 % ID/g | Bladder % ID/g [5]: 3.86 % ID/g | Femur % ID/g [5]: 1.59 % ID/g | Tumor % ID/g [5]: 3.13 % ID/g | Blood % ID/g (mean, NOD/SCID, 120 min): 0.43 % ID/g | Brain % ID/g (mean, NOD/SCID, 120 min): 0.04 % ID/g | Fat % ID/g (mean, NOD/SCID, 120 min): 0.11 % ID/g | Heart % ID/g (mean, NOD/SCID, 120 min): 0.24 % ID/g | Kidney % ID/g (mean, NOD/SCID, 120 min): 1.55 % ID/g | Large intestine % ID/g (mean, NOD/SCID, 120 min): 0.37 % ID/g | Liver % ID/g (mean, NOD/SCID, 120 min): 1.00 % ID/g | Lung % ID/g (mean, NOD/SCID, 120 min): 0.47 % ID/g | Muscle % ID/g (mean, NOD/SCID, 120 min): 0.30 % ID/g | Pancreas % ID/g (mean, NOD/SCID, 120 min): 0.57 % ID/g | Salivary gland % ID/g (mean, NOD/SCID, 120 min): 0.58 % ID/g | Small intestine % ID/g (mean, NOD/SCID, 120 min): 0.67 % ID/g | Spleen % ID/g (mean, NOD/SCID, 120 min): 0.31 % ID/g | Stomach % ID/g (mean, NOD/SCID, 120 min): 0.28 % ID/g | Bladder % ID/g (mean, NUDE, 120 min): 1.55 % ID/g | Blood % ID/g (mean, NUDE, 120 min): 0.61 % ID/g | Brain % ID/g (mean, NUDE, 120 min): 0.06 % ID/g | Fat % ID/g (mean, NUDE, 120 min): 0.12 % ID/g | Femur % ID/g (mean, NUDE, 120 min): 2.41 % ID/g | Heart % ID/g (mean, NUDE, 120 min): 0.31 % ID/g | Kidney % ID/g (mean, NUDE, 120 min): 1.46 % ID/g | Large intestine % ID/g (mean, NUDE, 120 min): 0.37 % ID/g | Liver % ID/g (mean, NUDE, 120 min): 0.44 % ID/g | Lung % ID/g (mean, NUDE, 120 min): 0.53 % ID/g | Muscle % ID/g (mean, NUDE, 120 min): 0.47 % ID/g | Pancreas % ID/g (mean, NUDE, 120 min): 0.43 % ID/g | Salivary gland % ID/g (mean, NUDE, 120 min): 0.90 % ID/g | Small intestine % ID/g (mean, NUDE, 120 min): 0.33 % ID/g | Spleen % ID/g (mean, NUDE, 120 min): 0.22 % ID/g | Stomach % ID/g (mean, NUDE, 120 min): 0.26 % ID/g | Tumor % ID/g (mean, NUDE, 120 min): 3.08 % ID/g

Source: patent publication US20240382629A1, “HETEROBIVALENT AND HOMOBIVALENT AGENTS TARGETING FIBROBLAST ACTIVATION PROTEIN ALPHA AND/OR PROSTATE-SPECIFIC MEMBRANE ANTIGEN” (The Johns Hopkins University, priority 2021, published 2024)
